Reference: PMC11640089, “JRM-28, a Novel HDAC2 Inhibitor, Upregulates Plasticity-Associated Proteins in Hippocampal Neurons and Enhances Morphological Plasticity via Activation of CREB: Implications for Alzheimer’s Disease” (Cells, 2024)

What was measured:
[1] = system: mouse primary hippocampal neurons; assay: Dendrite and spine analysis in E18 mouse primary hippocampal neurons; assay type: cell-based; conditions: 5 µM, 48 h
Method: Primary neuronal cell culture was performed based on a protocol approved by the Institutional Animal Care and Use Committee (IACUC) of the University of Wisconsin-Milwaukee, Milwaukee, WI-53211, and by the guidelines set by the National Institute of Health. Embryonic day 18 (E18) fetuses were harvested, and hippocampal tissue was dissected from brains and then processed for single cell culture in poly-D-lysine-coated plates, as discussed elsewhere. Neuronal cells were maintained with B-27^TM-plus-supplemented complete neurobasal media for 7–10 days until fully differentiated. After that, the treatment with JRM-28 was performed. […]
For counting spine density, dissociated E18 hippocampal neurons maintained 18 days in vitro were stained with Alexa-647 conjugated phalloidin (Cat #A22287) together with MAP2. Only densely stained neurons (>20 spines every 10 µm dendrite) were counted. The total length of each dendrite was measured at 400× magnification using an Accu-Scope EXC-500 microscope (NY, USA). The number of spines on the dendrites was counted under oil immersion. As some of the spines were hidden under the dendrite, only spines that protruded laterally from the shafts of the dendrites into the surrounding area of clear neuropil were counted. […]

SHSY5Y cells = assay: Lactate dehydrogenase (LDH) release cytotoxicity assay; assay type: cell-based, human; conditions: 24 h
Method: Lactate dehydrogenase (LDH) cell cytotoxicity assay was performed per the manufacturer’s protocol. Briefly, SHSY5Y cells were grown in a 96-well plate with up to 70% confluency followed by treatment with increasing doses of JRM-28 under serum-free conditions. Serially diluted JRM-28 was used in a concentration range from 75 nM to 50 μM. As a control, serially diluted DMSO controls were added. After 24 h, supernatants were harvested by a multi-channel pipette and then assessed for LDH release with CyQUANT™ LDH Cytotoxicity Assay Kit. Briefly, 50 μL of supernatant was incubated with an equal volume of the working reaction mixture (generated after combining the 600 µL of assay buffer Stock Solution with the 11.4 mL of Substrate Stock substrate mix), incubated at room temperature for 30 min protected from light, terminated by 50 μL of stop solution, and then measured at 490 nm using a microplate absorbance spectrophotometer (Perkin Elmer Enspire 2300 Multilabel Multimode Microplate Reader). The percentage of cytotoxicity was determined following the formula provided with the LDH assay kit and then converted to relative cell cytotoxicity.

iPSC-derived AD neurons = assay: NMDA/AMPA-driven calcium entry assay in iPSC-derived AD neurons; assay type: cell-based, human
Method: Mouse primary hippocampal neurons and AD neurons were loaded with Fluo4-fluorescence conjugated calcium dye (Invitrogen Molecular Probes, Cat #F10471) and incubated at 37 °C for 60 min, as described before. Briefly, fluorescence excitation and emission spectra were recorded in a Perkin–Elmer Victor X2 Fluorimetric Spectrometer (Versiti Blood Center, Wauwatosa, WI, USA) in the presence of 50 μM NMDA and AMPA solutions. The recording was performed with 100 repeats at 0.1 ms intervals. The oscillogram was generated with the help of Parkin Elmer 2030 software that was connected to the Victor X2 calcium recorder unit. The real-time calcium noise graph was generated as a kinetic chart plotted on a linear scale.

CREB = assay: CRE dual luciferase reporter assay; assay type: cell-based, human; conditions: increasing doses (2, 5, and 10 µM)
Method: CRE luciferase assay was performed using a dual luciferase kit (Cat# 60611; BPS Bioscience). The CRE reporter is premixed with a constitutively expressing Renilla (sea pansy) luciferase vector that serves as an internal control for transfection efficiency. The reporter construct is transfected in SHSY5Y cells with Lipofectamine3000^TM transfection reagent mixed with serum-free Opti-MEM^TM Transfection media followed by supplementation with 20% FBS-containing media. After 24 h, cells were treated with JRM-28 for 5 h, and then dual luciferase activity was measured by cell lysis. The reaction was set in a 96-well plate, and the assay endpoint was recorded in a PerkinElmer Enspire multimodal plate reader.

For `CN(C(=O)CC(O)/C=C/CCSS(=O)(=O)CC/C=C/C(O)CC(=O)N(C)c1ccccc1)c1ccccc1` (stereo not drawn) [JRM-28, S-((E)-5-hydroxy-7-(methyl(phenyl)amino)-7-oxohept-3-en-1-yl) (E)-5-hydroxy-7-(methyl(phenyl)amino)-7-oxohept-3-ene-1-sulfonothioate], the “spine maturation (head-to-shaft ratio >0.6)” value ([1]; 18 DIV) was “significantly induced the maturation of spines”, the MAP2-ir basal dendrites ([1]; 8 days in vitro) was “significantly upregulated the synthesis of MAP2-ir basal dendrites” and the LDH release (SHSY5Y cells; 30 µM and 50 µM) was “significantly induced LDH release”. The LDH release (SHSY5Y cells; concentrations lower than 30 µM) was “but not lower concentrations of JRM-28, significantly induced LDH release”, the AMPA-driven calcium influx (iPSC-derived AD neurons; 5 µM) was “strong AMPA-driven calcium influx” and the NMDA-driven calcium entry (iPSC-derived AD neurons; 5 µM) was “significantly high”. For the same compound, the “concentration of maximum NMDA-driven calcium entry” value (iPSC-derived AD neurons; 2, 5, and 10 µM tested) was 10 µM, the “NMDA- and AMPA-induced calcium entry after creb siRNA” value (iPSC-derived AD neurons; creb siRNA-transfected AD neurons) was “strongly attenuated” and the CREB-driven reporter activity (CREB) was “upregulated the CREB-driven reporter activity”.
